From publication PMC9138568 (2022)

Test system: G3-OTAapt1-FAM (F1) (DNA, aptamer) GGGGATCGGGTGTGGGTGGCGTAAAGGGAGCATC
Assay: fluorescence quenching (FAM, guanine PIET)
Details: Na+ 120 mM, Ca2+ 3 mM; 10 mM Tris-HCl pH 8.4, room temperature; 20 nM F1; calibration curve only

binding: yes
SMILES: C[C@@H]1Cc2c(Cl)cc(C(=O)N[C@@H](Cc3ccccc3)C(=O)O)c(O)c2C(=O)O1
